# Measured values: ChEMBL document CHEMBL1201862, “PubChem BioAssay data set” (2004)
# Calls of active or inactive are those of the source.
# What was measured:
# [1] = molecular target: T1, Rac GTPase-activating protein 1 (Homo sapiens, UniProt Q9H0H5); test: blockers of MgcRacGAP-driven Rac1 GTP hydrolysis – biochemical, ADP Hunter fluorescence, primary and confirmatory, confirmation (AID 624330); type: functional
# T1 sequence (Q9H0H5 whole entry): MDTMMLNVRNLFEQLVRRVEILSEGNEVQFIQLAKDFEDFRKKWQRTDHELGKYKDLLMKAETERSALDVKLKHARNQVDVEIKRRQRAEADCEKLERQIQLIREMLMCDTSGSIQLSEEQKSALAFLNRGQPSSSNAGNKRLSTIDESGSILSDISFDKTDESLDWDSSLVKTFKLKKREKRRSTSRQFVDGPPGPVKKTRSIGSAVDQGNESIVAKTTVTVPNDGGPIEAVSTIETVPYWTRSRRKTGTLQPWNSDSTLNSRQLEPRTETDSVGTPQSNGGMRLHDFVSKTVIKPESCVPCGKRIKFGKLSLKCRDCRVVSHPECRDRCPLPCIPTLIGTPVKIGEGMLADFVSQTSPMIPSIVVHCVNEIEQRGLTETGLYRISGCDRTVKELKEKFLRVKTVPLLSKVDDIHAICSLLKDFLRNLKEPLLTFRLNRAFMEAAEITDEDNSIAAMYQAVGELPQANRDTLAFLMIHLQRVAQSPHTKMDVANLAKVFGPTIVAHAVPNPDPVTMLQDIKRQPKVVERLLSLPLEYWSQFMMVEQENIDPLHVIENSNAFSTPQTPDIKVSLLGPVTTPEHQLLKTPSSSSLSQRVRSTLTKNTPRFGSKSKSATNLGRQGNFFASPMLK
# [2] = Trypanosoma cruzi growth suppression in host cells – NIH3T3 host cells, beta-gal luminescence, confirmation (AID 2044); type: functional, cell-based;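 note: intracellular parasites grown in NIH/3T3 mouse fibroblasts as host cells; luminescent beta-galactosidase reporter signal from transgenic T. cruzi replicating inside host cells; inhibitors lower the luminescence signal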
# [3] = NIH3T3 cell viability loss – ATP luminescence, mouse fibroblasts, counter-screen, dose response (AID 2010); type: functional, cell-based;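 note: cells exposed to compound for about 90 hours before reading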
# [4] = Luminescence Cell-Based Dose Retest to Confirm Inhibitors of Cancer Stem Cells. [Related pubchem assays (depositor defined):AID2717, AID2721]; type: functional; settings: Homo sapiens
# INS1 = test: INS-1E survival protection against cytokine death – cell-based, luminescence, retest, dose response (AID 449756); type: functional; settings: Rattus norvegicus;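 note: cell death triggered by IL-1 beta plus TNF-alpha plus IFN-gamma mixture; protective hits raise ATP signal compared with cytokine alone wells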
# Cytochrome P450 3A4 = Cytochrome P450 3A4 (Homo sapiens, UniProt P08684);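 note: CYP3A4 tested as one member of a cytochrome P450 panel screen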
# Cytochrome P450 2D6 = Cytochrome P450 2D6 (Homo sapiens, UniProt P10635);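 note: CYP2D6 member of a cytochrome P450 panel assay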
# Cytochrome P450 2C19 = Cytochrome P450 2C19 (Homo sapiens, UniProt P33261); test: Cytochrome panel assay with activity outcomes. Panel member name: p450-cyp2c19 Compounds with AC50 equal or less than 10 uM are considered active; type: functional
# Chain of Cytochrome P450 2C19 (P33261 whole entry): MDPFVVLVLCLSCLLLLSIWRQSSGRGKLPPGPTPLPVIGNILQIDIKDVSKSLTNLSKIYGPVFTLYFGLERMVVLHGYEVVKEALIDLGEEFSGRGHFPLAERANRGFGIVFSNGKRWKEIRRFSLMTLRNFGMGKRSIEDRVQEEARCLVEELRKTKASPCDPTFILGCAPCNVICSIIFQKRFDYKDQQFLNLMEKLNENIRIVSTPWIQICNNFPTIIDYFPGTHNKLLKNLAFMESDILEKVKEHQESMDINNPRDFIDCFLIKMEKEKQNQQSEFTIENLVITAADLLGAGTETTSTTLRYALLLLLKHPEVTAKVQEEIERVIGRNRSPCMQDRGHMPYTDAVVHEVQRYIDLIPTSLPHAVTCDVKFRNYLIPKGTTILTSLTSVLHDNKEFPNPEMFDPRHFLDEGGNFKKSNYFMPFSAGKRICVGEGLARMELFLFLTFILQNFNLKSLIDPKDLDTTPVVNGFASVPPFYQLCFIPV
# Chain of Cytochrome P450 2D6 (P10635 whole entry): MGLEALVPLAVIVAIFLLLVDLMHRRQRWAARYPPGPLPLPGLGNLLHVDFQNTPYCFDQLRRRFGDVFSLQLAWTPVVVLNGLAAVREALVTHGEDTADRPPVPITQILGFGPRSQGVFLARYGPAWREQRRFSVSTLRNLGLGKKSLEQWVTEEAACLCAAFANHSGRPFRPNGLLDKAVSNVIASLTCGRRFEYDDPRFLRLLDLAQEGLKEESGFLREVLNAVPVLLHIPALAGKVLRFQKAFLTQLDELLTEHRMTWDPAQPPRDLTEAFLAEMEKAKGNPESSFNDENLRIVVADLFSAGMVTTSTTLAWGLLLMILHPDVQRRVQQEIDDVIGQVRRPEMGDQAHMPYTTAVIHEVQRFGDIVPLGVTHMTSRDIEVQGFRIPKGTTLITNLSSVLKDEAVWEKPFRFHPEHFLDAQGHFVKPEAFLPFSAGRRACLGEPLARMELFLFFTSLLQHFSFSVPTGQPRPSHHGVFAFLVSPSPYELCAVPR
# Chain of Cytochrome P450 3A4 (P08684 whole entry): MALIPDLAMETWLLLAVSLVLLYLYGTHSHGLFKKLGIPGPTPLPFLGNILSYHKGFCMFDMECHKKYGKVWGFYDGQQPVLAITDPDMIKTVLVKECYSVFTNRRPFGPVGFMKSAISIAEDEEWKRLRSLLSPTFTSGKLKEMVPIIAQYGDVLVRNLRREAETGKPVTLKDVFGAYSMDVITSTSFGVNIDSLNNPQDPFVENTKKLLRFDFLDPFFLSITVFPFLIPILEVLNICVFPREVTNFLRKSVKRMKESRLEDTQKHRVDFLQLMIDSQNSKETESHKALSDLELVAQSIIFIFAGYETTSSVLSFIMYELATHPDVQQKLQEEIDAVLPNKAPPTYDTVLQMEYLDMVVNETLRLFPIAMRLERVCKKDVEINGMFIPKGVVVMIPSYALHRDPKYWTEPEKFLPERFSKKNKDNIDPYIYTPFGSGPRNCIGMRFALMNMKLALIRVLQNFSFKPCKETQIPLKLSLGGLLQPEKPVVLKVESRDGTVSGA
structure (smiles),measurement,setting,value
COc1ccc(CN2CCCC(C(=O)N3CCCC3)C2)cc1 (stereo unspecified),IC50,[1],109 µM (active)
O=C(CCCCN1CCCCC1)c1ccc2c(c1)Cc1ccccc1-2,EC50,[2],1.9 µM (active)
same,EC50,[3],13.6 µM (active)
Nc1ccc(N2CCN(Cc3ccccc3Cl)CC2)c(Cl)c1,AC50,[4],2.45 µM (active)
COc1cc(Br)c(/C=C/c2ccc3cccc(O)c3n2)cc1OC,EC50,[2],0.831 µM (active)
same,EC50,[3],> 60 µM (not active)
O=C(CN1CCN(c2ccc(O)cc2)CC1)Nc1ccc(SC(F)F)cc1,AC50,[4],6.49 µM (active)
Cc1ccc(NC(=O)NCC2CCN(Cc3cccc(Cl)c3)CC2)cc1Cl,EC50,[2],1.03 µM (active)
same,AC50,[4],8.54 µM (active)
same,EC50,[3],> 60 µM (not active)
same,AC50,INS1,12.8 µM (active)
C=C[C@]1(C)C[C@H](OC(=O)CO)[C@]2(C)C3C(=O)CC[C@]3(CC[C@H]2C)[C@H](C)[C@H]1O (stereo partly specified),AC50,Cytochrome P450 3A4,3.16 µM (inconclusive)
O=C(OCc1nc2ccccc2s1)c1ccc(Br)s1,AC50,Cytochrome P450 3A4,25.1 µM (inconclusive)
CN(CC(=O)Nc1ccc(S(=O)(=O)N2CCCC2)cc1)Cc1ccc(Cl)cc1,EC50,[2],1.58 µM (active)
same,EC50,[3],> 60 µM (not active)
O=C(Cn1cnc([N+](=O)[O-])n1)N/N=C/c1ccc2ccccc2c1,EC50,[2],0.333 µM (active)
same,EC50,[3],> 60 µM (not active)
CCC(=O)Nc1nc(C)c(-c2csc(Nc3cccc(O)c3)n2)s1,AC50,[4],0.188 µM (active)
CCc1ccc(-c2csc(NC(=O)C3CCCO3)c2C(=O)OC(C)C)cc1 (stereo unspecified),AC50,Cytochrome P450 3A4,28.2 µM (inconclusive)
CCN(CC)c1ccc(NC(=O)COc2ccc(-n3cnnn3)cc2)cc1,IC50,[1],63 µM (active)
Cc1nc2cnc(N3CCNCC3)nc2n(Cc2cccs2)c1=O,AC50,Cytochrome P450 2D6,12.6 µM (inconclusive)
CN(C)c1ccc(-c2nccc(NCCN3CCOCC3)n2)cc1,AC50,Cytochrome P450 2D6,39.8 µM (inconclusive)
same,AC50,Cytochrome P450 3A4,25.1 µM (inconclusive)
same,AC50,Cytochrome P450 2C19; read-out: AC50,15.8 µM (inconclusive)
O=C(NC1(Cc2ccccc2)CCN(CCCc2ccccc2)C1=O)c1ccccc1 (stereo unspecified),AC50,INS1,2.75 µM (active)
CN(C(=O)COc1cccc(Br)c1)C1CCS(=O)(=O)C1 (stereo unspecified),AC50,Cytochrome P450 2C19; read-out: AC50,22.4 µM (inconclusive)
O=C(O)Cc1c[nH]cn1 [IMIDAZOLE ACETIC ACID],AC50,Cytochrome P450 3A4,31.6 µM (inconclusive)
COc1ccccc1N1CCNCC1,AC50,Cytochrome P450 2C19,inconclusive
CCNS(=O)(=O)c1ccc(NC(=O)c2cc(C(F)(F)F)nn2C)cc1,AC50,Cytochrome P450 3A4,6.31 µM (inconclusive)
O=C(NCCCN1CCCC1=O)c1ccc([N+](=O)[O-])s1,EC50,[2],0.534 µM (active)
same,EC50,[3],> 30 µM (not active)
O=C(Nc1ncc(S(=O)(=O)c2ccc([N+](=O)[O-])cc2)s1)c1ccc2ccccc2c1,EC50,[2],0.128 µM (active)
same,AC50,[4],2.11 µM (active)
same,EC50,[3],> 60 µM (not active)
O=C(NC(=S)NCc1cccnc1)c1cccc2ccccc12,EC50,[2],0.505 µM (active)
same,EC50,[3],> 60 µM (not active)
C=CCc1cccc(/C=N/NC(=O)c2ccccc2OC)c1O,EC50,[2],2.2 µM (active)
same,EC50,[3],> 60 µM (not active)
same,AC50,INS1,3.06 µM (active)
Cn1c([N+](=O)[O-])cnc1CN1CCN(CCO)CC1,AC50,Cytochrome P450 2C19,inconclusive
Oc1ccccc1CNCc1ccccc1O,AC50,Cytochrome P450 2D6,3.16 µM (inconclusive)
CC[C@H]1CN2CCc3cc(OC)c(OC)cc3[C@H]2C[C@@H]1C[C@H]1NCCc2c1[nH]c1ccc(O)cc21,AC50,Cytochrome P450 2D6,3.98 µM (inconclusive)
CSc1nc2ccccc2cc1/C=C(\C#N)c1ccc(Cl)cc1Cl,AC50,Cytochrome P450 2D6,1.58 µM (inconclusive)
COc1cccc(C(=O)N(C)c2nnc(-c3ccncc3)s2)c1,AC50,Cytochrome P450 3A4,6.31 µM (inconclusive)
CCCCCCOc1ccc(OC(=O)c2cccnc2)cc1,AC50,[4],3.33 µM (active)
CC(=O)c1ccc(NC(=O)C(Cc2ccccc2)NC(=O)c2ccco2)cc1 (stereo unspecified),AC50,Cytochrome P450 3A4,28.2 µM (inconclusive)
CCC(CO)Oc1cc(NCc2ccc(C)c(C)c2)c2ncn(C(C)C)c2c1 (stereo unspecified),AC50,INS1,5.86 µM (active)
O=c1c2ccccc2[nH]c(=S)n1CCCN1CCC(Cc2ccccc2)CC1,EC50,[2],0.161 µM (active)
same,EC50,[3],> 60 µM (not active)
COc1ccc(CN2CCN(C(=O)C3CCC(CNS(=O)(=O)c4ccc(C)cc4)CC3)CC2)c(OC)c1OC (stereo unspecified),EC50,[2],0.404 µM (active)
same,EC50,[3],> 60 µM (not active)
Cc1cc(Cl)cc2sc(S)nc12,IC50,[1],85.4 µM (active)
COCCN1CN=C(Nc2nc3ccccc3s2)NC1,AC50,Cytochrome P450 2D6,11.2 µM (inconclusive)
CN(C)c1ccc(/C=C(\C#N)C(=O)OCC(=O)N(C)C2CCS(=O)(=O)C2)cc1 (stereo unspecified),AC50,INS1,> 260 µM (inactive)
CNC(=S)N(Cc1cccs1)Cc1cc2cc(OC)c(OC)cc2nc1O,AC50,INS1,99.3 µM (active)
CC(=O)NCCNc1nc(-c2ccc3c(c2)OCO3)nc2ccccc12,AC50,Cytochrome P450 2C19; read-out: AC50,39.8 µM (inconclusive)
c1ccc(-c2cccc(N3CCC4(CCNCC4)CC3)c2)cc1,AC50,Cytochrome P450 2D6,39.8 µM (inconclusive)
COC(=O)c1ccc(C(=O)OCCCc2nc3cc(N)ccc3[nH]2)cc1,IC50,[1],110 µM (active)
Cc1ccc(/C=N/NC(=O)CNC(=O)COc2ccccc2)o1,AC50,[4],> 195 µM (inactive)
COc1ncc2nc(-c3ccccc3)c(=O)n(C[C@H]3CCCO3)c2n1,AC50,Cytochrome P450 3A4,25.1 µM (inconclusive)
COc1ccc(S(=O)(=O)N2CCC(N3CCCCC3)CC2)cc1,AC50,Cytochrome P450 2C19; read-out: AC50,39.8 µM (inconclusive)
COCCCn1c(=N)c(C(N)=S)cc2c(=O)n3cccc(C)c3nc21,EC50,[2],1.34 µM (active)
same,EC50,[3],> 60 µM (not active)
CCOc1cc(N2CCOCC2)c(OCC)cc1NC(=O)c1ccc(C)s1,IC50,[1],70.8 µM (active)
CN(Cc1ccccc1)Cc1c(O)ccc2ccccc12,IC50,[1],89.3 µM (active)
COc1cc(C(C)n2nnc3ccccc32)ccc1O (stereo unspecified),IC50,[1],108 µM (active)
CCC1CCCCN1Cc1cc(OC)c(O)c([N+](=O)[O-])c1 (stereo unspecified),AC50,Cytochrome P450 2D6,14.1 µM (inconclusive)
COc1ccc(C(=O)c2c(C)c3ccccc3n2CC(O)CNC(C)C)cc1 (stereo unspecified),AC50,INS1,30.1 µM (active)
CCCCCc1nc2c(C#N)c(-c3ccc(Cl)cc3)ccn2n1,AC50,Cytochrome P450 3A4,25.1 µM (inconclusive)
Cc1ccc(OCC(O)Cn2c3ccccc3c3ccccc32)cc1 (stereo unspecified),AC50,[4],4.84 µM (active)
CC(=O)c1ccc(OCc2cc(C(=O)N3CCCCC3c3cccnc3)no2)cc1 (stereo unspecified),AC50,INS1,14.3 µM (active)
COc1ccc(/C=N/NC(=O)c2cnccn2)cc1O,IC50,[1],85.6 µM (active)
COC(=O)c1[nH]c2ccc(Cl)cc2c1NC(=O)Oc1ccccc1,IC50,[1],19.8 µM (active)
CCOc1cc(/C=N/Nc2ncc(C)c(O)n2)ccc1O,IC50,[1],32.1 µM (active)
CCc1cc(-c2n[nH]cc2-c2nc3ccccc3n2C)c(O)cc1O,IC50,[1],83.6 µM (active)
c1ccc(Nc2cccc3c(Nc4ccccc4)cccc23)cc1,EC50,[2],1.14 µM (active)
same,EC50,[3],> 60 µM (not active)
O=C(COc1ccc(Br)cc1Cl)NC1CCN(Cc2ccccc2)CC1,EC50,[2],0.165 µM (active)
same,EC50,[3],> 60 µM (not active)
O=C1CCCC2=C1C(c1ccc(OS(=O)(=O)c3ccc(Cl)cc3)cc1)C1=C(CCCC1=O)O2,AC50,Cytochrome P450 2D6,12.6 µM (inconclusive)
Clc1ccc(Cl)c(OCCCCN2CCNCC2)c1,EC50,[2],3.42 µM (active)
same,AC50,[4],2.41 µM (active)
same,EC50,[3],9.24 µM (active)
Cc1[nH]n(C(C)(C)C)c(=O)c1Sc1ccc(Cl)cc1,EC50,[2],16.3 µM (active)
same,EC50,[3],> 60 µM (not active)
C/C(Cn1cnc([N+](=O)[O-])n1)=N/NC(=O)COc1ccccc1Cl,EC50,[2],0.154 µM (active)
same,EC50,[3],> 60 µM (not active)
CN(C)CCCn1c2c(c(SCC(=O)Nc3cccc4ccccc34)nc1=O)CCC2,EC50,[2],2.04 µM (active)
same,EC50,[3],> 60 µM (not active)
COc1cc(C)ccc1OCCOc1cc(C)ccc1Cl,AC50,Cytochrome P450 2C19; read-out: AC50,5.62 µM (inconclusive)
COCC(=O)N1CCC2(CCCN(c3cccc(-c4ccccc4)c3)C2)CC1,AC50,Cytochrome P450 2D6,39.8 µM (inconclusive)
same,AC50,Cytochrome P450 3A4,12.6 µM (inconclusive)
COc1cccc(NC(=O)Nc2ccc(C)c(Cl)c2)c1,EC50,[2],2.41 µM (active)
same,EC50,[3],> 30 µM (not active)
O=S(=O)(c1cccc(-c2nnc(-c3ccc(Br)cc3)o2)c1)N1CCCCCC1,AC50,Cytochrome P450 2C19; read-out: AC50,11.2 µM (inconclusive)
NC1=NC(Nc2ccc(F)cc2F)=NC2(CCCCC2)N1,AC50,Cytochrome P450 2C19; read-out: AC50,3.16 µM (inconclusive)
NC(=O)CC(NC(=O)c1ccc(Br)cc1)c1ccc(N2CCCCCCC2)c([N+](=O)[O-])c1 (stereo unspecified),AC50,[4],8.2 µM (active)
Cn1nnnc1SCCNCc1cccc2ccccc12,EC50,[2],> 60 µM (not active)
same,EC50,[3],> 60 µM (not active)
CCC(CO)Oc1cc(NCc2ccc(Cl)cc2Cl)c2ncn(C(C)C)c2c1 (stereo unspecified),AC50,[4],8.14 µM (active)
CN(C)C(=O)c1ccc(-c2ccc3ncnc(Nc4ccc(F)cc4)c3c2)cc1,AC50,Cytochrome P450 2C19; read-out: AC50,25.1 µM (inconclusive)
